The target of the experiment is T1, CERT (Homo sapiens, UniProt Q9Y5P4).
T1 construct: made in house; host or cells: E. coli BL21 (DE3), pET-28a(+)
T1 sequence (Q9Y5P4 1-598 isoform Q9Y5P4-2): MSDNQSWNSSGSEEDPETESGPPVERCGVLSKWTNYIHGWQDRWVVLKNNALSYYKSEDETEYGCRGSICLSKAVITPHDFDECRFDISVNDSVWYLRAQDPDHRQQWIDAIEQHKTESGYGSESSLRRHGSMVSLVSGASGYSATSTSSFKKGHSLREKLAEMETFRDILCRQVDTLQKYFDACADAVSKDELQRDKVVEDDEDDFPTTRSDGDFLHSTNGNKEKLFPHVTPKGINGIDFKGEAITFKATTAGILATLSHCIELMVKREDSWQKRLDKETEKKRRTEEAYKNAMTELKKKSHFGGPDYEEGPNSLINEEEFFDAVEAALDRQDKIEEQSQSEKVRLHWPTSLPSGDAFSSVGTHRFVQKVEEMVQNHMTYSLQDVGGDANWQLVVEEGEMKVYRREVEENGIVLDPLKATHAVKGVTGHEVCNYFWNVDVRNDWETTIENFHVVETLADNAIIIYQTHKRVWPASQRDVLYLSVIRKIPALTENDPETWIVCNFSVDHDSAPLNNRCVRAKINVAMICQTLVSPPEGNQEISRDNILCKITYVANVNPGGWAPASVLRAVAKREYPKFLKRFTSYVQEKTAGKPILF
The experiment can be described thus: NR-ceramide fluorescence competition assay. It is filed as binding. The conditions noted are these: 1 μM Nile red ceramide. The text has this:
Having the identified hits from CERT-transfer assay, we were interested in further understanding the relationship between the CERT-transfer inhibitory activity and CERT-binding affinity. With this goal in mind, we have developed a homogenous competitive assay based on the binding of fluorescently-labeled ceramide to CERT-protein (Fig S6). It’s well known that Nile Red is […]
than in hydrophilic one. Based on this knowledge, we have designed a fluorescently-labeled probe in which the Nile Red-tag was incorporated into the ceramide fatty acid moiety. The NR-ceramide […]
excellent signal-to-noise ratio (28-fold, Fig S7.A). Equilibration takes ~1h of incubation at 30°C.
Furthermore, this assay is a simple mix-and read format and uses only low amounts of fluorophore (1µM) and CERT-protein (12.5µg/assay).
The assay was performed in non-binding black-bottom 96-well microplate (Greiner Bio-One). To each well was added 1µL HPA12 (final concentration 2.5µM) or DMSO, followed by 98 µL of the CERT aliquot (12.5µg/well). After the mixture was incubated for 40 min at 30°C, 1µL NR-ceramide (final concentration 1µM) was added. Controls were triplicates of 10mM Tris.HCl buffer (pH 7.4, 250 mM sucrose) with 2µL DMSO, CERT aliquot (12.5µg/well) with 2µL DMSO, and 1µL NR-ceramide (final concentration 1µM) in 10mM Tris.HCl buffer (pH 7.4, 250 mM sucrose) with 1µL DMSO. The plate was then sealed with transparent Thermowell seal tape and placed in the microplate reader (LABTECH) at 30°C with shaking. The fluorescence was measured from the top over 80min (number of cycles 35, delay 70 sec) with excitation filter 540 nm and emission filter 640 nm. The competitive CERT-binding activity was calculated using the formula: Ix = I(À2-Y)/I0(À1-X), where À1 is the average of the florescence of the control of NR-ceramide in Tris.HCl buffer, X is the average of the fluorescence of the buffer alone, À2 is the fluorescence average of the assay mixture, Y is the fluorescence average of the CERT aliquot with inhibitor/DMSO (Fig […]
It is however lower than the differentiation in the transfer assay (Fig S8B).
3.2 High throughput screening for CERT-activity and Data analysis
In order to validate the performance of developed assay in high-throughput screening format, the hits from ‘confirmed-hit group’ (45 hits) were screened for their competitive CERT-binding activity. The assay was performed as mentioned in the previous sub-section 3.1. Briefly, 1µL tested compound (final concentration 1µM, 2.5µM, 5µM, 10µM) or DMSO for control, and 98 µL CERT stock solution were sequentially added into a non-binding 96-well microplate. The plate was sealed and incubated at 30°C for 40 min, before 1µL NR-ceramide (final concentration 1µM) was added.
Controls per plate were triplicates of 10mM Tris.HCl buffer (pH 7.4, 250 mM sucrose) with 2µL DMSO, CERT aliquot (12.5µg/well) with 2µL DMSO, 1µL NR-ceramide (final concentration 1µM) in 10mM Tris.HCl buffer (pH 7.4, 250 mM sucrose), and HPA12 as a reference inhibitor (final concentration of 1µM, and 2.5µM, 5µM). The plate was sealed with transparent Thermowell seal tape and the assay was allowed to proceed as described above using excitation filter 540 nm and emission filter 640 nm. The competitive CERT-binding activity was calculated using the formula: Ix = I(À2-Y)/I0(À1-X), where À1 is the average of the florescence of the control 1µL NR-ceramide in Tris.HCl buffer, X is the average of the fluorescence of the buffer alone, À2 is the average of the fluorescence of assay mixture treated with tested compound or DMSO, Y is the average of the fluorescence of CERT aliquot with inhibitor/DMSO.

Consider `CCCCCCCCCCCC(=O)NC(CO)CC(O)c1ccccc1` (single isomer, unassigned) [R,R diastereomer of HPA‐12, N-(3Hydroxy-1-hydroxymethyl-3-phenylpropyl)-dodecamide], for which the “activity in the NR ceramide competition assay” value was “much less pronounced”.

Source of the values: publication PMC7756341, “Liposomal FRET Assay Identifies Potent Drug‐Like Inhibitors of the Ceramide Transport Protein (CERT)” (Chemistry (Weinheim an Der Bergstrasse, Germany), 2020).
